This assay has as its target T1, PDE10A enzyme (Homo sapiens, UniProt Q9Y233).
T1 construct: made in house; host or cells: E. coli BL21(DE3)
Description: PDE10A inhibition assay, SPA. The note with it: column head 2,1334003; unit inferred, nM. The class given is biochemical. Here is the method:
Active PDE10A enzyme is prepared in a number of ways for use in PDE assays (Loughney, K. et al. Gene 1999, 234, 109-117; Fujishige, K. et al. Eur J Biochem. 1999, 266, 1118-1127 and Soderling, S. et al. Proc. Natl. Acad. Sci. 1999, 96, 7071-7076). PDE10A can be expressed as full-length proteins or as truncated proteins, as long as they express the catalytic domain. PDE10A can be prepared in different cell types, for example insect cells or E. coli. An example of a method to obtain catalytically active PDE10A is as follows: The catalytic domain of human PDE10A (amino acids 440-779 from the sequence with accession number NP 006652) is amplified from total human brain total RNA by standard RT-PCR and is cloned into the BamH1 and Xho1 sites of the pET28a vector (Novagen). Expression in coli is performed according to standard protocols. Briefly, the expression plasmids are transformed into the BL21(DE3) E. coli strain, and 50 mL cultures inoculated with the cells allowed to grow to an OD600 of 0.4-0.6 before protein expression is induced with 0.5 mM IPTG. Following induction, the cells are incubated overnight at room temperature, after which the cells are collected by centrifugation. Cells expressing PDE10A are resuspended in 12 mL (50 mM TRIS-HCl-pH8.0, 1 mM MgCl2 and protease inhibitors). The cells are lysed by sonication, and after all cells are lysed, TritonX100 is added according to Novagen protocols.
PDE10A and Pde3A assays can for example be performed as follows: PDE10A and Pde3A assays are performed in 60 uL samples containing a fixed amount of the relevant PDE enzyme (sufficient to convert 20-25% of the cyclic nucleotide substrate), a buffer (50 mM HEPES7.6; 10 mM MgCl2; 0.02% Tween20), 0.1 mg/ml BSA, 225 pCi of ^3H-labelled cyclic nucleotide substrate, tritium labeled cAMP to a final concentration of 5 nM and varying amounts of inhibitors. Reactions are initiated by addition of the cyclic nucleotide substrate, and reactions are allowed to proceed for one hr at room temperature before being terminated through mixing with 15 uL 8 mg/mL yttrium silicate SPA beads (Amersham). The beads are allowed to settle for one hr in the dark before the plates are counted in a Wallac 1450 Microbeta counter. The measured signal can be converted to activity relative to an uninhibited control (100%) and IC50 values can be calculated using the Xlfit extension to EXCEL.
T1 sequence (Q9Y233 716-1055): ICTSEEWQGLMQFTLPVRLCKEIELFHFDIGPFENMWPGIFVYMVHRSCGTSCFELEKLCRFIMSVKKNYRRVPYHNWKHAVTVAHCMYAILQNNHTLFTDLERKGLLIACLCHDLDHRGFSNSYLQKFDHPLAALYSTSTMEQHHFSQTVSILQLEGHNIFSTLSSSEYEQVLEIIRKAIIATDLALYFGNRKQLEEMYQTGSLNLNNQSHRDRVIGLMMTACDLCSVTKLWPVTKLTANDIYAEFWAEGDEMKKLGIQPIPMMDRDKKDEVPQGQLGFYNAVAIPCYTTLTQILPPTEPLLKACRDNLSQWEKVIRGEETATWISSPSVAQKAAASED
As for `COc1cc(OC)cc(C2CN(c3ncc(C#N)c4cc(OC)c(OC)cc34)CCN2)c1` (stereo not drawn) [Compound 11, 1-[3-(3,5-Dimethoxy-phenyl)-piperazin-1-yl]-6,7-dimethoxy-isoquinoline-4-carbonitrile], the 50% inhibitory concentration (IC50) was 41 nM.

`CCOc1ccc(C2CN(c3ncc(C#N)c4cc(OC)c(OC)cc34)CCN2)c(C)c1` (stereo not drawn) [Compound 69, 1-[3-(4-Ethoxy-2-methyl-phenyl)-piperazin-1-yl]-6,7-dimethoxy-isoquinoline-4-carbonitrile]: the midpoint of inhibition, the IC50, lay at 790 nM.

The molecule `CCOc1ccc(C2CN(c3ncc(C#N)c4cc(OC)c(OC)cc34)CCN2)cc1` (stereo not drawn) [Compound 55, 1-[3-(4-Ethoxy-phenyl)-piperazin-1-yl]-6,7-dimethoxy-isoquinoline-4-carbonitrile] showed a half-inhibitory concentration (IC50) of 200 nM.

In the case of `COc1cc2c(N3CCNC(c4ccc(C)cc4)C3)nc(C)c(C#N)c2cc1OC` (stereo not drawn) [Compound 31, 6,7-Dimethoxy-3-methyl-1-(3-p-tolyl-piperazin-1-yl)-isoquinoline-4-carbonitrile], the 50% inhibitory concentration (IC50) was 1000 nM.

In the case of `COc1cc2c(C#N)cnc(N3CCOC(c4ccc(C(F)(F)F)cc4)C3)c2cc1OC` (stereo not drawn) [Compound 22, 6,7-Dimethoxy-1-[2-(4-trifluoromethyl-phenyl)-morpholin-4-yl]-isoquinoline-4-carbonitrile], the half-maximal inhibitory concentration (IC50) amounted to 1600 nM.

Consider `COc1ccc(C2CN(c3ncc(C#N)c4cc(OC)c(OC)cc34)CCN2)cc1Cl` (stereo not drawn) [Compound 56, 1-[3-(3-Chloro-4-methoxy-phenyl)-piperazin-1-yl]-6,7-dimethoxy-isoquinoline-4-carbonitrile], for which the IC50 is 81 nM.

Turning to `COc1cc2c(C#N)cnc(N3CCNC(c4ccc(C(F)(F)F)cc4)C3)c2cc1OC` (stereo not drawn) [Compound 13, 6,7-Dimethoxy-1-[3-(4-trifluoromethyl-phenyl)-piperazin-1-yl]-isoquinoline-4-carbonitrile], the IC50 was found to be 160 nM.

`COc1cc2c(N3CCNC(c4cc(OC)c(OC)c(OC)c4)C3)nc(C)c(C#N)c2cc1OC` (stereo not drawn) [Compound 48, 6,7-Dimethoxy-3-methyl-1-[3-(3,4,5-trimethoxy-phenyl)-piperazin-1-yl]-isoquinoline-4-carbonitrile] returned an IC50 of 1500 nM.

In turn, `COc1cc(C)c(C2CN(c3ncc(C#N)c4cc(OC)c(OC)cc34)CCN2)c(C)c1` (stereo not drawn) [Compound 64, 6,7-Dimethoxy-1-[3-(4-methoxy-2,6-dimethyl-phenyl)-piperazin-1-yl]-isoquinoline-4-carbonitrile] displayed an IC50 of 2100 nM.

Regarding `COc1cc2c(C#N)cnc(N3CCNC(c4ccc(Cl)cc4Cl)C3)c2cc1OC` (stereo not drawn) [Compound 15, 1-[3-(2,4-Dichloro-phenyl)-piperazin-1-yl]-6,7-dimethoxy-isoquinoline-4-carbonitrile], the 50% inhibitory concentration (IC50) came to 520 nM.

As to `COc1cc2c(N3CCNC(c4cccc5ccccc45)C3)nc(C)c(C#N)c2cc1OC` (stereo not drawn) [Compound 34, 6,7-Dimethoxy-3-methyl-1-(3-naphthalen-1-yl-piperazin-1-yl)-isoquinoline-4-carbonitrile], the midpoint of inhibition, the IC50, lay at 880 nM.

Turning to `COc1cccc(C2CN(c3nc(C)c(C#N)c4cc(OC)c(OC)cc34)CCN2)c1` (stereo not drawn) [Compound 3, 6,7-Dimethoxy-1-[3-(3-methoxy-phenyl)-piperazin-1-yl]-3-methyl-isoquinoline-4-carbonitrile], half-maximal inhibition (IC50) was put at 240 nM.

The molecule `COc1cc(OC)cc(C2CN(c3nc(C)c(C#N)c4cc(OC)c(OC)cc34)CCN2)c1` (stereo not drawn) [Compound 35, 1-[3-(3,5-Dimethoxy-phenyl)-piperazin-1-yl]-6,7-dimethoxy-3-methyl-isoquinoline-4-carbonitrile] showed an IC50 of 710 nM.

With `COc1cc2c(N3CCNC(c4cccc([N+](=O)[O-])c4)C3)nc(C)c(C#N)c2cc1OC` (stereo not drawn) [Compound 50, 6,7-Dimethoxy-3-methyl-1-[3-(3-nitro-phenyl)-piperazin-1-yl]-isoquinoline-4-carbonitrile], 1100 nM corresponded to half-maximal inhibition (IC50). This IC50 lies about 1.5-fold higher than the previous one.

`COc1cc2c(C#N)cnc(N3CCNC(c4ccc(OC)c(C(F)(F)F)c4)C3)c2cc1OC` (stereo not drawn) [Compound 68, 6,7-Dimethoxy-1-[3-(4-methoxy-3-trifluoromethyl-phenyl)-piperazin-1-yl]-isoquinoline-4-carbonitrile] showed a concentration for half-maximal inhibition (IC50) of 440 nM.

`COc1cc2c(C#N)cnc(N3CCNC(c4cccc5ccccc45)C3)c2cc1OC` (stereo not drawn) [Compound 4, 6,7-Dimethoxy-1-(3-naphthalen-1-yl-piperazin-1-yl)-isoquinoline-4-carbonitrile]: the half-maximal inhibitory concentration (IC50) came out at 78 nM.

The molecule `COc1cc2c(C#N)cnc(N3CCNC(c4ccc(OC(C)C)c(C)c4)C3)c2cc1OC` (stereo not drawn) [Compound 63, 1-[3-(4-Isopropoxy-3-methyl-phenyl)-piperazin-1-yl]-6,7-dimethoxy-isoquinoline-4-carbonitrile] returned an IC50 of 870 nM.

`COc1cc2c(C#N)cnc(N3CCNC(c4ccc(F)cc4)C3)c2cc1OC` (stereo not drawn) [Compound 1, 1-[3-(4-Fluoro-phenyl)-piperazin-1-yl]-6,7-dimethoxy-isoquinoline-4-carbonitrile] had a half-inhibitory concentration (IC50) of 80 nM.

`COc1cc2c(C#N)cnc(N3CCN(C)C(c4ccc(C)cc4)C3)c2cc1OC` (stereo not drawn) [Compound 45, 6,7-Dimethoxy-1-(4-methyl-3-p-tolyl-piperazin-1-yl)-isoquinoline-4-carbonitrile] yielded an IC50 of 350 nM.

The molecule `CCOc1ccc(C2CN(c3ncc(C#N)c4cc(OC)c(OC)cc34)CCN2)cc1C` (stereo not drawn) [Compound 59, 1-[3-(4-Ethoxy-3-methyl-phenyl)-piperazin-1-yl]-6,7-dimethoxy-isoquinoline-4-carbonitrile] returned an IC50 of 650 nM.

Turning to `COc1ccc(C2CN(c3ncc(C#N)c4cc(OC)c(OC)cc34)CCN2)cc1F` (stereo not drawn) [Compound 54, 1-[3-(3-Fluoro-4-methoxy-phenyl)-piperazin-1-yl]-6,7-dimethoxy-isoquinoline-4-carbonitrile], the 50% inhibitory concentration (IC50) amounted to 36 nM.

The molecule `COc1cc2c(C#N)cnc(N3CCNC(c4ccc5c(c4)OCO5)C3)c2cc1OC` (stereo not drawn) [Compound 8, 1-(3-Benzo[1,3]dioxol-5-yl-piperazin-1-yl)-6,7-dimethoxy-isoquinoline-4-carbonitrile] returned a half-maximal inhibitory concentration (IC50) of 81 nM.

`COc1cc2c(N3CCN[C@H](c4ccccc4)C3)nc(C)c(C#N)c2cc1OC` [Compound 40] yielded a concentration for half-maximal inhibition (IC50) of 520 nM.

Regarding `COc1ccc(C2CN(c3ncc(C#N)c4cc(OC)c(OC)cc34)CCN2)c(C)c1` (stereo not drawn) [Compound 53, 6,7-Dimethoxy-1-[3-(4-methoxy-2-methyl-phenyl)-piperazin-1-yl]-isoquinoline-4-carbonitrile], the IC50 was 500 nM.

Consider `COc1ccc(C2CN(c3ncc(C#N)c4cc(OC)c(OC)cc34)CCN2)cc1NC(C)=O` (stereo not drawn) [Compound 70, N-{5-[4-(4-Cyano-6,7-dimethoxy-isoquinolin-1-yl)-piperazin-2-yl]-2-methoxy-phenyl}-acetamide], for which inhibition was half-maximal at 66 nM (IC50).

Molecule `COc1cc2c(N3CCNC(c4ccc(F)cc4)C3)nc(C)c(C#N)c2cc1OC` (stereo not drawn) [Compound 41, 1-[3-(4-Fluoro-phenyl)-piperazin-1-yl]-6,7-dimethoxy-3-methyl-isoquinoline-4-carbonitrile] yielded a half-inhibitory concentration (IC50) of 1200 nM.

`COc1cc2c(N3CCNC(c4ccc(Br)cc4)C3)nc(C)c(C#N)c2cc1OC` (stereo not drawn) [Compound 37, 1-[3-(4-Bromo-phenyl)-piperazin-1-yl]-6,7-dimethoxy-3-methyl-isoquinoline-4-carbonitrile] yielded an IC50 of 2600 nM.

Values taken from patent US7858620B2, “Cyanoisoquinoline” (H. Lundbeck A/S, priority 2007, dated 2010).
